Here are results for seven compounds from ChEMBL document CHEMBL4699440, “Comprehensive review on the anti-bacterial activity of 1,2,3-triazole hybrids” (Eur J Med Chem, 2019).

Holding throughout (assay type): functional
The test system of assay [1] is Proteus vulgaris. Nature of the assay: Antibacterial activity against Proteus vulgaris ATCC 4636 assessed as inhibition zone.
Assay [2] concerns Pseudomonas aeruginosa. Put plainly: Antibacterial activity against Pseudomonas aeruginosa ATCC 27853 assessed as inhibition zone.
Assay [3] deals with Escherichia coli. Nature of the assay: Antibacterial activity against Escherichia coli ATCC 25922 assessed as inhibition zone.
Assay [4] concerns Staphylococcus aureus. Put plainly: Antibacterial activity against Staphylococcus aureus ATCC 25923 assessed as inhibition zone.
The next assay concerns Bacillus spizizenii. Put plainly: Antibacterial activity against Bacillus subtilis ATCC 6633 assessed as inhibition zone.
A further assay relates to Pseudomonas fluorescens. Put plainly: Antibacterial activity against Pseudomonas fluorescence NCIM-2059 incubated for 8 hrs.
Assay [5] deals with Staphylococcus aureus. Put plainly: Antibacterial activity against Staphylococcus aureus NCIM-2602 incubated for 12 hrs.
The subject of assay [6] is Bacillus subtilis. Nature of the assay: Antibacterial activity against Bacillus subtilis NCIM-2162 incubated for 12 hrs.
Assay [7] concerns Escherichia coli. Nature of the assay: Antibacterial activity against Escherichia coli NCIM-2576 incubated for 8 hrs.
The subject of assay [8] is Staphylococcus aureus. Nature of the assay: Antibacterial activity against methicillin-sensitive Staphylococcus aureus ATCC 29213.
Assay [9] deals with Staphylococcus aureus. Put plainly: Antibacterial activity against methicillin-resistant Staphylococcus aureus ATCC 33591.
For assay [10], the system named is Klebsiella pneumoniae. Put plainly: Antibacterial activity against Klebsiella pneumoniae 7.
The test system of assay [11] is Staphylococcus epidermidis. Nature of the assay: Antibacterial activity against methicillin-resistant Staphylococcus epidermidis 13-3.
A further assay relates to Morganella morganii. Put plainly: Antibacterial activity against Morganella morganii ATCC 25830.
Assay [12] has as its system Proteus vulgaris. Nature of the assay: Antibacterial activity against Proteus vulgaris ATCC 29905.
Assay [13] relates to Enterococcus faecalis. Nature of the assay: Antibacterial activity against Enterococcus faecalis ATCC 29212 after overnight incubation by CLSI M7-A9 based method.
For assay [14], the system named is Staphylococcus epidermidis. Put plainly: Antibacterial activity against methicillin-sensitive Staphylococcus epidermidis ATCC 12228.
Another assay concerns Proteus mirabilis. Put plainly: Antibacterial activity against Proteus mirabilis 13-1.
The next assay concerns Klebsiella aerogenes. Nature of the assay: Antibacterial activity against Enterobacter aerogenes ATCC 13048.
The subject of assay [15] is Enterococcus faecium. Nature of the assay: Antibacterial activity against Enterococcus faecium ATCC 700221.
Assay [16] deals with Escherichia coli. Nature of the assay: Antibacterial activity against Escherichia coli 14-11.
For another assay, the system named is Enterobacter cloacae. Put plainly: Antibacterial activity against Enterobacter cloacae ATCC 43560.
The test system of assay [17] is Klebsiella pneumoniae. Put plainly: Antibacterial activity against Klebsiella pneumoniae ATCC 700603.
In assay [18] the test system is Escherichia coli. Put plainly: Antibacterial activity against Escherichia coli ATCC 25922 after overnight incubation by CLSI M7-A9 based method.
For assay [19], the system named is Enterococcus faecium. Nature of the assay: Antibacterial activity against Enterococcus faecium 13-7.
Assay [20] concerns Pseudomonas aeruginosa. Put plainly: Antibacterial activity against Pseudomonas aeruginosa ATCC 27853.
In the next assay the test system is Serratia marcescens. Nature of the assay: Antibacterial activity against Serratia marcescens ATCC 21074.
The next assay deals with Providencia rettgeri. Nature of the assay: Antibacterial activity against Providencia rettgeri ATCC 31052.
Another assay has as its system Citrobacter freundii. Nature of the assay: Antibacterial activity against Citrobacter freundii ATCC 43864.
Assay [21] has as its system Stenotrophomonas maltophilia. Put plainly: Antibacterial activity against Stenotrophomonas maltophilia ATCC 13636.
The test system of assay [22] is Enterococcus faecalis. Nature of the assay: Antibacterial activity against Enterococcus faecalis ATCC 51299.
Assay [23] concerns Acinetobacter calcoaceticus. Put plainly: Antibacterial activity against Acinetobacter calcoaceticus ATCC 19606.
In assay [24] the test system is Pseudomonas aeruginosa. Put plainly: Antibacterial activity against Pseudomonas aeruginosa MTCC 741 incubated for 24 hrs by microdilution method. For orientation: In broth dilution the organism is exposed to a series of concentrations in liquid medium.
Assay [25] deals with Staphylococcus aureus. Put plainly: Antibacterial activity against Staphylococcus aureus MTCC 96 incubated for 24 hrs by microdilution method.
Assay [26] relates to Escherichia coli. Put plainly: Antibacterial activity against Escherichia coli MTCC 443 incubated for 24 hrs by microdilution method.
The test system of assay [27] is Klebsiella pneumoniae. Nature of the assay: Antibacterial activity against Klebsiella pneumoniae MTCC 618 incubated for 24 hrs by microdilution method.
In assay [28] the test system is Staphylococcus epidermidis. Put plainly: Antibacterial activity against Staphylococcus epidermidis incubated for 24 hrs by microdilution method.
Assay [29] concerns Bacillus subtilis. Nature of the assay: Antibacterial activity against Bacillus subtilis MTCC 441 incubated for 24 hrs by microdilution method.
For a further assay, the system named is Candida albicans. Nature of the assay: Antifungal activity against Candida albicans RCMB-05036 assessed as diameter of inhibition zone at 5 mg/ml by diffusion technique. The settings on record: read-out: DIZ.
The next assay has as its system Aspergillus fumigatus. Nature of the assay: Antifungal activity against Aspergillus fumigatus RCMB-02568 assessed as diameter of inhibition zone at 5 mg/ml by diffusion technique. To be noted: read-out: DIZ.
In a further assay the test system is Geotrichum candidum. Nature of the assay: Antifungal activity against Geotrichum candidum RCMB-05097 assessed as diameter of inhibition zone at 5 mg/ml by diffusion technique. The settings on record: read-out: DIZ.
Assay [30] relates to Syncephalastrum racemosum. Nature of the assay: Antifungal activity against Syncephalastrum racemosum RCMB-05922 assessed as diameter of inhibition zone at 5 mg/ml by diffusion technique. The settings on record: read-out: DIZ.

In brackets after ≈: the same amount, converted by molar mass. Some results are limits rather than exact numbers.

Turning to `CC(O)C(=O)O.CCOc1ccc2nc3cc(N)ccc3c(N)c2c1`, the “inhibition zone (IZ)” value in the assay with Proteus vulgaris [1], with Pseudomonas aeruginosa [2], with Escherichia coli [3], in the assay on Staphylococcus aureus [4] and in the assay with Bacillus spizizenii was 12 mm each time.

The term MIC90 denotes an inhibitory concentration at the 90% level, which refers to growth in some studies and to a panel of isolates in others. A low value points to greater potency. On to `Fc1ccc(-c2cnnn2Cc2csc(-c3ccc(Cl)cc3)n2)cc1`, for which the MIC90 against Pseudomonas fluorescens, in the assay with Staphylococcus aureus [5], in the assay on Bacillus subtilis [6] and against Escherichia coli [7] was 4.5 µg/mL (≈ 12.1 µM) each time.

In general, MIC refers to the lowest concentration that inhibits growth of the organism. Regarding `C[C@H]1COc2c(N3CCN(C)CC3)c(F)cc3c(=O)c(C(=O)O)cn1c23.C[C@H]1COc2c(N3CCN(C)CC3)c(F)cc3c(=O)c(C(=O)O)cn1c23.O` [LEVOFLOXACIN], the MIC (in the assay with Staphylococcus aureus [8]; in the assay with Staphylococcus aureus [9]; against Klebsiella pneumoniae [10]; in assay [11]; against Morganella morganii; against Proteus vulgaris [12]) was no more than 0.03 µg/mL in each case. Besides, the minimal inhibitory concentration (MIC) (in the assay with Enterococcus faecalis [13]; in assay [14]; in the assay with Proteus mirabilis; with Klebsiella aerogenes; against Enterococcus faecium [15]; with Escherichia coli [16]) was no more than 0.03 µg/mL in each case. Besides, the minimum inhibitory concentration (MIC) in the assay on Enterobacter cloacae, in the assay on Klebsiella pneumoniae [17], in the assay with Escherichia coli [18], against Enterococcus faecium [19], in the assay with Pseudomonas aeruginosa [20] and in the assay with Serratia marcescens was no more than 0.03 µg/mL in each case. Further, the minimal inhibitory concentration (MIC) (against Providencia rettgeri; with Citrobacter freundii; in [21]; against Enterococcus faecalis [22]; in [23]) was no more than 0.03 µg/mL in each case.

With `COc1ccc(-n2cc(Cn3cc(C(=O)N4CCCCC4)c(=O)c4cc(F)c(N5CCCCC5)cc43)nn2)cc1`, the MIC (with Pseudomonas aeruginosa [24]; against Staphylococcus aureus [25]; against Escherichia coli [26]; in the assay with Klebsiella pneumoniae [27]; in assay [28]; with Bacillus subtilis [29]) was 18.8 µg/mL (≈ 34.4 µM) each time.

In the case of `C[C@@H]1[C@H](O)[C@@H](C)/C=C/C=C/C=C/C=C/C=C/C=C/C=C/[C@H](O[C@@H]2O[C@H](C)[C@@H](O)[C@H](N)[C@@H]2O)C[C@@H]2O[C@](O)(C[C@@H](O)C[C@@H](O)[C@H](O)CC[C@@H](O)C[C@@H](O)CC(=O)O[C@H]1C)C[C@H](O)[C@H]2C(=O)O` [AMPHOTERICIN B], the zone of inhibition at 5000 µg/mL (in the assay with Candida albicans; with Aspergillus fumigatus; with Geotrichum candidum; in assay [30]) was 19.7 mm each time.

Consider `O=C(c1cn(Cc2cn(-c3ccc(C(F)(F)F)cc3)nn2)c2cc(N3CCOCC3)c(F)cc2c1=O)N1CCOCC1`, for which the minimum inhibitory concentration (MIC) (against Pseudomonas aeruginosa [24]; against Staphylococcus aureus [25]; with Escherichia coli [26]; against Klebsiella pneumoniae [27]; in assay [28]; against Bacillus subtilis [29]) was 18.8 µg/mL (≈ 32 µM) in each case.

Turning to `COc1ccc(-c2cnnn2Cc2csc(-c3ccc(Br)cc3)n2)cc1`, the MIC90 with Pseudomonas fluorescens, with Staphylococcus aureus [5], with Bacillus subtilis [6] and with Escherichia coli [7] was 4.5 µg/mL (≈ 10.5 µM) throughout.
